The target in this data set is T1, P-glycoprotein (P-gp) (Homo sapiens, UniProt P08183).
T1 construct: gene ABCB1
The data set can be described thus: Pgp-Glo luminescent P-gp ATPase assay; inhibition of paclitaxel-stimulated ATPase at […]. In kind it is biochemical.

T1 sequence (P08183 whole entry): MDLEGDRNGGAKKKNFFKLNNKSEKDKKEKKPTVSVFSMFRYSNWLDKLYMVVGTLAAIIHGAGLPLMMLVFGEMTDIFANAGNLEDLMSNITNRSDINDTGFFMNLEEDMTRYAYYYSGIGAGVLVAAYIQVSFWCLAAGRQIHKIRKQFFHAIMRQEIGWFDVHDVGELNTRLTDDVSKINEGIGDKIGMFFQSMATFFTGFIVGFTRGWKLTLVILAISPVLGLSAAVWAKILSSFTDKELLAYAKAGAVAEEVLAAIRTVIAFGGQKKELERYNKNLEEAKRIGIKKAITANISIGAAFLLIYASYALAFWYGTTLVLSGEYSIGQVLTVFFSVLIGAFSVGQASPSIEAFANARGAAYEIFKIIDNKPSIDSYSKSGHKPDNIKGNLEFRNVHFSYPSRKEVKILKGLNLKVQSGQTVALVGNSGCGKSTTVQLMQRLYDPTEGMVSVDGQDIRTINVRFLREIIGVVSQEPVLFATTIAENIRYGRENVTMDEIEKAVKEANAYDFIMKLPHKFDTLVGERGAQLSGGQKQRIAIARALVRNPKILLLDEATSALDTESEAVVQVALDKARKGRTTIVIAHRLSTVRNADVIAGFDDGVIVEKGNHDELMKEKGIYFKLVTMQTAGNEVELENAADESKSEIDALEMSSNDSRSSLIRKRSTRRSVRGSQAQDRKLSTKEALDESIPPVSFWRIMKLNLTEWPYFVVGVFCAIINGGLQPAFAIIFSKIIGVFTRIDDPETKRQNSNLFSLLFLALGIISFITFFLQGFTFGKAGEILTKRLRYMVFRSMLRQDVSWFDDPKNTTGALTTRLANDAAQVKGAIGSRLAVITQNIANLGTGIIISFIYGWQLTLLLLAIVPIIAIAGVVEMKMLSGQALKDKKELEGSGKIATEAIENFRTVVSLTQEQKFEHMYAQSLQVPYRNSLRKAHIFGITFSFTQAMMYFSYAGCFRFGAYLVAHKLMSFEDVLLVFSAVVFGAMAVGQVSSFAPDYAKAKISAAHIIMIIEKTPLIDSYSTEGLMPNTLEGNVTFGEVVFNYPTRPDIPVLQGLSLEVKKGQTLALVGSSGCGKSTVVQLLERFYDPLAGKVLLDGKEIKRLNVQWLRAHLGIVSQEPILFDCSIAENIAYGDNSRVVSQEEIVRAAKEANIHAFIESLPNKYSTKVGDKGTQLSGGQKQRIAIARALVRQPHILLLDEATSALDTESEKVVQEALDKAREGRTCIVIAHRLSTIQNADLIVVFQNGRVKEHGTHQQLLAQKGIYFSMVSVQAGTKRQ

As for `C/C1=C\[C@@H]2[C@H](CC[C@@]3(C)O[C@@H]3[C@H]3[C@@H](O)[C@@H](C)C[C@]3(OC(=O)/C=C/c3ccccc3)C1=O)C2(C)C` [EM-E-11-4], the “Pgp-Glo luminescent P-gp ATPase assay; inhibition of paclitaxel-stimulated ATPas” value was “These results suggest that EM-E-11-4 hinders P-gp ATPase activity”.

The values above are taken from paper PMC7066893 (Aging (Albany NY), 2020).
